The target in this experiment is T1, recombinant hRIPK2 protein (kinase domain aa 1-299-His-tagged) (Homo sapiens, UniProt O43353).
T1 construct: kinase domain aa 1-299-His-tagged; purchased Life Technologies PR7829A
The experiment in a line: RIPK2 AlphaLISA assay (displacement of bead-bound CZC-8004 from hRIPK2). The conditions noted are these: recombinant hRIPK2 kinase domain 10 nM, 2 h at 23° C. It counts as binding. The method, boiled down:
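His-tagged kinase domain (10 nM, as diluted) was mixed with compound (0.8% DMSO), acceptor beads bearing the probe CZC-8004 and Ni2+ donor beads. After 2 h at 23 °C, AlphaLISA signal was read. Loss of signal reflects displacement of the probe from RIPK2.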
(In general: Alpha assays give light when donor and acceptor beads are brought close together.)

pIC50: −log10 of the molar value.

Usually pIC50 stands for −log10 of the IC50, conventionally taken in molar units.

T1 sequence (O43353 1-299): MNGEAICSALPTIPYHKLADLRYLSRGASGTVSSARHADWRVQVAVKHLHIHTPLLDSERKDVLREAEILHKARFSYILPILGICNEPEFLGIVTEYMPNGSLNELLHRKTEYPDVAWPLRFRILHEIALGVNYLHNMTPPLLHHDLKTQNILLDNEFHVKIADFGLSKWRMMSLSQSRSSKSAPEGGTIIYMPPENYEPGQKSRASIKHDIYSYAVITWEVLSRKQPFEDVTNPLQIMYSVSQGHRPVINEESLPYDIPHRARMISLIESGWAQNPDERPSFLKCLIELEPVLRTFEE

With `COc1cc2cc(c1)-c1cnn3ccc(nc13)OC[C@@H]1C[C@@H](O)C(=O)N1CCN2` [Example 90, (12R,14S)-12-hydroxy-4-methoxy-16-oxa-7,10,20,21,24-pentaazapentacyclo[15.5.2.1^2,6.0^1°,^14.0^2°,^23]pentacosa-1 (23),2,4,6(25),17(24),18,21-heptaen-11-one], the pIC50 is > 8.00. With `COCc1cc2cc(c1)-c1cnn3cc(C)c(nc13)OC[C@@H]1CC(OC)C(=O)N1CCN2` (single isomer, unassigned) [Example 65, (12R or S,14S)-12-methoxy-4-(methoxymethyl)-18-methyl-16-oxa-7,10,20,21,24-pentaazapenta cyclo[15.5.2.1^2,6.0^10,14.0^20,23]pentacosa-1(23),2,4,6(25),17(24), 18,21-heptaen-11-one] the figure was > 8.00. With `CC(C)O[C@@H]1C[C@H]2COc3ccn4ncc(c4n3)-c3cc(Cl)cc(c3)NCCN2C1=O` [Example 38, (12R,14S)-4-chloro-12-(propan-2-yloxy)-16-oxa-7,10,20,21,24-pentaazapentacyclo[15.5.2.1^2,6.0^10,^14.0^20,^23]pentacosa-1(23),2,4,6(25),17(24),18,21-heptaen-11-one], the negative logarithm of the IC50 (pIC50) was > 8.00. With `COc1cc2cc(c1)-c1cnn3cc(OC)c(nc13)OC[C@@H]1C[C@@H](OCC3COC3)C(=O)N1CCN2` [Example 134, (12R,14S)-4,18-dimethoxy-12-(oxetan-3-ylmethoxy)-16-oxa-7,10,20,21,24-pentaazapentacyclo[15.5.2. 1^2,6.0^10,^14.0^20,^23]pentacosa-1(23),2,4,6(25),17(24),18, 21-heptaen-11-one] the figure was > 8.00; with `COCCO[C@@H]1C[C@H]2COc3nc4c(cnn4cc3OCC3CCO3)-c3cc(cc(OC)c3)NCCN2C1=O` (stereo partly drawn) [Example 130, (12R,14S)-4-methoxy-12-(2-methoxyethoxy)-18-(oxetan-2-ylmethoxy)-16-oxa-7,10,20,21,24-pentaazapentacyclo[15.5.2. 1^2,6.0^10,^14.0^20,^23]pentacosa-1(23),2,4,6(25),17(24),18,21-heptaen-11-one], > 8.00.

For the compound `COCCO[C@@H]1C[C@H]2COc3nc4c(cnn4cc3OC)-c3cc(O)cc(c3)NCCN2C1=O` [Example 128, (12R,14S)-4-hydroxy-18-methoxy-12-(2-methoxyethoxy)-16-oxa-7,10,20,21,24-pentaazapentacyclo[15.5.2. 1^2,6.0^10,^14.0^20,^23]pentacosa-1(23),2,4,6(25),17(24),18,21-heptaen-11-one], the negative-log IC50 (pIC50) was > 8.00. Next, `COCCO[C@@H]1C[C@H]2COc3ccn4ncc(c4n3)-c3cc(cc(OC)c3)NCCN2C1=O` [Example 47, (12R,14S)-4-methoxy-12-(2-methoxyethoxy)-16-oxa-7,10,20,21,24-pentaazapentacyclo[15.5.2.1^2,6.0^10,^14.0^20,^23]pentacosa-1(23),2(25),3,5,17(24),18,21-heptaen-11-one]: > 8.00; `COc1cc2cc(c1)-c1cnn3ccc(nc13)OC[C@@H]1C[C@@H](OC)C(=O)N1CC(C)N2` (single isomer, unassigned) [Example 105, (8R*,12R,14S)-4,12-dimethoxy-8-methyl-16-oxa-7,10,20,21,24-pentaazapentacyclo[15.5.2.1^2,6.0^1°,^14.0^2°,^23]pentacosa-1(23),2,4,6(25),17(24),18,21-heptaen-11-one]: > 8.00.

Turning to `O=C1[C@H](OC2CC2)C[C@H]2COc3ccn4ncc(c4n3)-c3cc(cc(-n4cccn4)c3)NCCN12` [Example 81, (12R,14S)-12-cyclopropoxy-4-(1H-pyrazol-1-yl)-16-oxa-7,10,20,21,24-pentaazapentacyclo[15.5.2. 1^2,6.0^10,^14.0^20,^23]pentacosa-1(23),2(25),3,5,17(24),18,21-heptaen-11-one], the pIC50 is > 8.00.

The values are drawn from patent publication US12630563B2, “Macrocyclic RIP2-kinase inhibitors” (Oncodesign S.A., priority 2020, dated 2026).
